{"source": "patent US20070093520A1", "about": "“Method of treatment of diarrhea-predominant irritable bowel syndrome in a subject” (priority 2005, published 2007)", "key": {"[1]": {"system": "diarrhea-predominant IBS subjects", "experiment": "3007 Study: 12-lead ECG abnormalities", "assay_type": "in vivo, human", "settings": "Study 3007", "protocol": "Resting 12-lead ECGs were performed at Day 1 (Visit 5 of the core protocol), Months 1, 6, and 12 (end of study or early termination visit). A centralized ECG service was used to evaluate all ECG tracings to supply consistent standardized ECG interpretation.\nAll analyses and summaries for ECG assessments were based on the evaluation performed in the central ECG laboratory.\nFor Study 3007, “baseline’ was defined as the pre-treatment period of core Study 3006 for subjects randomized to the cilansetron treatment group in Study 3006 and as the last post-Baseline visit of Study 3006 (normally Visit 5) for subjects randomized to the placebo group in Study 3006. The by-timepoint analyses were based on timepoints defined in Section 5.7.1.2.\nSummary statistics are presented for PR, QRS, QT, and QTc intervals (Bazett and Fridericia formulas) and heart rate at each visit and at Endpoint, as well as for change from Baseline results at each post-Baseline visit and at Endpoint. Bazett's and Fridericia's QTc intervals were calculated based on the following formulas: Bazett: QTc intervals=QT/√RR Fridericia: QTc intervals=QT/^3√RR\nMarkedly abnormal ECG parameter values collected after the first dose of study medication and within 30 days of the last dose of study medication were summarized overall. The following criteria were applied to identify markedly abnormal parameter values: • PR ≧0.210 sec; • QRS ≧0.120 sec; • QTc >0.440 sec;\nHeart rate ≧120 bpm or ≦50 bpm or change of ≧15 bpm.\nThe determination of markedly abnormal for QTc was carried out separately for both the Bazett correction and the Fridericia correction.\nThe incidence of treatment-emergent ECG abnormalities is presented overall and by type of abnormality. A treatment-emergent ECG abnormality was an abnormality identified by the ECG core laboratory that was not present at baseline (e.g., prior to the entry into core Study 3006), and was observed on or after initiation of study medication and up to 30 days after discontinuation of study medication. The incidence of treatment-emergent ECG abnormalities is presented by time interval, as well as overall for the entire treatment period. The incidence of treatment-emergent abnormalities is also presented in more general categories (e.g., presenting incidence of treatment-emergent myocardial infarction overall as well as by location), depending on whether it mitigates the interpretation.\nThe overall incidence of marked abnormalities for ECG parameters is presented overall by gender and overall."}, "[2]": {"system": "non-constipated IBS subjects", "experiment": "Phase II clinical trial Study S241.2.113, adequate relief of IBS symptoms", "assay_type": "in vivo, human", "settings": "2 mg TID"}}}
{"smiles": "Cc1nccn1C[C@H]1CCc2c(c3cccc4c3n2CCC4)C1=O", "note": "[cilansetron, (R)-(−)-4,5,6,8,9,10-hexahydro-10-[(2-methyl-1H-imidazol-1-yl)methyl]-11H-pyrido-[3,2,1-jk]-carbazol-11-one]", "values": [{"measurement": "marked ECG abnormality: decreased heart rate", "setting": "[1]; female subjects", "value": 6, "unit": "%"}, {"measurement": "marked ECG abnormality: prolonged QTc(B)", "setting": "[1]; female subjects", "value": 23, "unit": "%"}, {"measurement": "marked ECG abnormality: prolonged QTc(F)", "setting": "[1]; female subjects", "value": 10, "unit": "%"}, {"measurement": "treatment-emergent ECG abnormality: early repolarization-normal variant", "setting": "[1]; female subjects", "value": 2, "unit": "%"}, {"measurement": "treatment-emergent ECG abnormality: poor R-wave progression", "setting": "[1]; female subjects", "value": 13, "unit": "%"}, {"measurement": "treatment-emergent ECG abnormality: sinus arrhythmia", "setting": "[1]; female subjects", "value": 19, "unit": "%"}, {"measurement": "marked ECG abnormality: decreased heart rate", "setting": "[1]; male subjects", "value": 13, "unit": "%"}, {"measurement": "marked ECG abnormality: prolonged QTc(B)", "setting": "[1]; male subjects", "value": 6, "unit": "%"}, {"measurement": "marked ECG abnormality: prolonged QTc(F)", "setting": "[1]; male subjects", "value": 3, "unit": "%"}, {"measurement": "treatment-emergent ECG abnormality: early repolarization-normal variant", "setting": "[1]; male subjects", "value": 19, "unit": "%"}, {"measurement": "treatment-emergent ECG abnormality: poor R-wave progression", "setting": "[1]; male subjects", "value": 6, "unit": "%"}, {"measurement": "treatment-emergent ECG abnormality: sinus arrhythmia", "setting": "[1]; male subjects", "value": 25, "unit": "%"}, {"measurement": "incidence of prolonged QT interval", "setting": "[1]; overall", "value": 4, "unit": "%"}, {"measurement": "marked ECG abnormality: heart rate decrease", "setting": "[1]; overall", "value": 14, "unit": "%"}, {"measurement": "marked ECG abnormality: heart rate increase", "setting": "[1]; overall", "value": 15, "unit": "%"}, {"measurement": "marked ECG abnormality: prolonged QTc(B)", "setting": "[1]; overall", "value": 17, "unit": "%"}, {"measurement": "subjects with a post-Baseline marked ECG abnormality", "setting": "[1]; overall", "value": 50, "unit": "%"}, {"measurement": "subjects with a treatment-emergent ECG abnormality", "setting": "[1]; overall", "value": 62, "unit": "%"}, {"measurement": "treatment-emergent ECG abnormality: borderline LA enlargement", "setting": "[1]; overall", "value": 6, "unit": "%"}, {"measurement": "treatment-emergent ECG abnormality: early R-wave transition", "setting": "[1]; overall", "value": 6, "unit": "%"}, {"measurement": "treatment-emergent ECG abnormality: early repolarization-normal variant", "setting": "[1]; overall", "value": 8, "unit": "%"}, {"measurement": "treatment-emergent ECG abnormality: non-specific T-wave changes", "setting": "[1]; overall", "value": 7, "unit": "%"}, {"measurement": "treatment-emergent ECG abnormality: poor R-wave progression", "setting": "[1]; overall", "value": 11, "unit": "%"}, {"measurement": "treatment-emergent ECG abnormality: sinus arrhythmia", "setting": "[1]; overall", "value": 21, "unit": "%"}, {"measurement": "treatment-emergent ECG abnormality: sinus bradycardia", "setting": "[1]; overall", "value": 10, "unit": "%"}, {"measurement": "adequate relief of IBS symptoms versus placebo", "setting": "[2]", "value": "superior to placebo"}]}
